The test system of one data set is C57BL/6 male mice. Description: Mouse fear conditioning (contextual and auditory fear memory, freezing). Format: in vivo. How it is done: siRNA corresponding to NR2B (sense 5′-GGAUGAGUCCUCCAUGUUCtt-3′ and antisense 5′-GAACAUGGAGGACUCAUCCtt-3′, Silencer Pre-designed siRNA, ID #61879, Ambion, Tex.) was delivered into the ACC by microelectroporation, which was performed as described previously (Wei et al., 2003). Briefly, 0.5 μl of 1:4 mixture of siRNA (2.5 μg/μl) and pEGFP-N1 (1 μg/μl) was injected into the ACC (0.7 mm anterior to Bregma, ±0.4 mm lateral from the midline, 1.8 mm beneath the surface of the skull) (Franklin and Paxinos, 1997) through a 30-gauge injection cannula. Then, square-wave electric pulses (five pulses at 1 Hz, 50 ms duration at 40 V) were delivered through a pair of silver electrodes placed 2 mm anterior and 1 mm posterior to the injection site using a S48 Stimulator (Grass Instruments). Control groups consisted of a group receiving only the electroporation shock, pEGFP-N1, or Silencer Negative control siRNA (#4611, Ambion) and pEGFP-N1. Western blot analysis was performed 4 days after electroporation and electrophysiological recordings were taken 2-4 days after.
Under ketamine and xylazine anesthesia, 24-guage guide cannulas were implanted bilaterally into the ACC (0.7 mm anterior to Bregma, ±0.4 mm lateral from the midline, 1.7 mm beneath the surface of the skull) or dorsal hippocampus (2.0 mm posterior to Bregma, ±1.5 mm lateral from the midline, 1.9 mm beneath the surface of the skull). Mice were given at least 2 weeks to recover after cannula implantation. All procedures were performed in accordance with the requirements of the Animal Studies Committee at the University of Toronto. The 30-gauge injection cannula was 0.1 mm lower than the guide. For intra-ACC infusion, 0.5 μl Ro25-6981 (4 μg/μl) or saline was delivered bilaterally within 90 s using a pump. 15 min later mice were conditioned by one pairing of a tone (2.8 kHz, 85 dB, 30 s) and a foot shock (0.75 mA, 2 s) that terminated at the same time as the tone. For intra-hippocampal infusion, 0.5 μl Ro25-6981 (10 μg/μl) or saline was delivered bilaterally within 90 s. 15 min later mice received one pairing of a tone and a foot shock, as above. One day later, animals were exposed to the conditioning context without a tone for 3 min and freezing responses were scored automatically (Freeze view software, Actrimetrics, Wilmette, Ill.).
(§1) NR2B subunit inhibition in adult mice was examined to determine whether this impairs the formation of contextual fear memory. Three days after bilateral siRNA electroporation, mice were trained (or conditioned) and then tested for contextual fear memory by assessing freezing behavior in the same environmental context after 24 hours. There was no difference in baseline freezing or in freezing immediately following the shock/tone pairing between groups; however, there was a significant difference between groups when tested in the contextual environment one day later (n=8 for EGFP only; n=10 for control siRNA; n=8 for shock only; n=11 for NR2B siRNA; one-way ANOVA, p=0.005; FIG. 8C). […] Since the activation of NR2B was suppressed throughout the training and memory test, the roles of NR2B during the acquisition and retrieval of fear memory cannot be distinguished. Recently, electric stimulation of the ACC was reported to induce fear memory one and three days after stimulation (Tang et al., 2005), which implies that the ACC may be involved in the acquisition of fear memory. To directly address this issue, the effect of NR2B blockade using Ro25-6981 was examined. […] In order to rule out any locomotor side-effects, locomotor activity in the open field was tested after bilateral ACC microinjection of Ro25-6981 (n=4) or vehicle (n=4).

For another data set, the system named is mice. Put plainly: Locomotor activity in the open field. The conditions noted are these: bilateral ACC microinjection, recorded 15 minutes or one day after injection. Type of data set: in vivo, mouse. On the procedure: as §1
The test system of a further data set is NR1/NR2B. Conditions: cited from earlier work.
Another data set deals with NR2B-mediated NMDA EPSCs. Description: NR2B-mediated NMDA EPSCs in neurons from siRNA electroporated ACC slices. Format: cell-based, mouse. Conditions: Ro25-6981-sensitive component, control slices 12.6±2.6%. How it is done: Experiments were performed in a recording chamber on the stage of an Axioskop 2FS microscope with infrared DIC optics for visualizing whole-cell patch clamp recordings. EPSCs were recorded from layer II-III neurons using an Axon 200B amplifier (Axon Instruments, CA) and stimulations were delivered using a bipolar tungsten stimulating electrode placed in layer V of the ACC. In hippocampal slices, EPSCs were evoked by stimulating the Schaffer collateral-commissural pathway. EPSCs were induced by repetitive stimulations at 0.02 Hz and neurons were voltage clamped at −70 mV. The recording pipettes (3-5 MΩ) were filled with solution containing (mM) 145 K-gluconate, 5 NaCl, 1 MgCl2, 0.2 EGTA, 10 HEPES, 2 Mg-ATP, and 0.1 Na3-GTP (adjusted to pH 7.2 with KOH). After obtaining stable EPSCs for 10 min, three kinds of LTP induction paradigms were used within 12 min after establishing the whole-cell configuration to prevent wash out effect on LTP induction (Tsvetkov et al., 2002). The first protocol involved paired presynaptic 80 pulses at 2 Hz with postsynaptic depolarization at +30 mV (referred to as pairing training). […] The access resistance was 15-30 MΩ and was monitored throughout the experiment. […] Results are expressed as means±SEM. […]
NMDAR-mediated EPSCs were also recorded in neurons from electroporated ACC slices.

Where [1] appears, read: mice, 5 μg in 0.5 μl bilaterally into dorsal hippocampi, tested one day after training.

Entries after “also recorded” stand apart in the source; their conditions may differ.

The IC50 is the concentration that gives 50% inhibition.

Take `C[C@@H](CN1CCC(Cc2ccccc2)CC1)[C@@H](O)c1ccc(O)cc1` [Ro25-6981]: the auditory fear memory entry in the data set on C57BL/6 male mice (mice, 2 μg in 0.5 μl per side into the bilateral ACC) is “no difference in auditory fear memory”; in the data set on C57BL/6 male mice (setting [1]) it was “did not affect”. In addition, the contextual fear memory result in the data set with C57BL/6 male mice (setting [1]) is on record as “did not impair contextual fear memory; also recorded: did not affect”. In addition, the “baseline or immediate freezing behavior” value is listed as “did not significantly affect” in the data set with C57BL/6 male mice (mice, ACC microinjection) and “did not significantly affect” in the data set on C57BL/6 male mice (mice, hippocampal microinjection). Besides, the “contextual fear memory (freezing in the contextual environment)” value with C57BL/6 male mice (mice, microinjection 2 μg in 0.5 μl per side into the bilateral ACC before conditioning) is on record as “decreased contextual fear memory; also recorded: significant reduction in freezing”. Moreover, the “locomotor activity in the open field” value with mice was “no difference in locomotor activity”. For the same molecule, the IC50 with NR1/NR2B was 9 nM.
As for “NR2B siRNA: siRNA corresponding to NR2B, sense 5′-GGAUGAGUCCUCCAUGUUCtt-3′, antisense 5′-GAACAUGGAGGACUCAUCCtt-3′, Silencer Pre-designed siRNA ID #61879, Ambion (sense GGAUGAGUCCUCCAUGUUCTT; antisense GAACAUGGAGGACUCAUCCTT; chemistry not given here)”, the “NR2B-mediated NMDA EPSCs, % of total NMDAR-mediated current” value in the data set with NR2B-mediated NMDA EPSCs was found to be 7.3±0.7%. Besides, in the data set with C57BL/6 male mice (bilateral siRNA electroporation into ACC), the “baseline freezing or freezing immediately following the shock/tone pairing” value is “no difference”. In the data set with C57BL/6 male mice (bilateral siRNA electroporation into ACC, trained three days later, tested after 24 hours), the “contextual fear memory (freezing in the contextual environment)” value is recorded as “impaired contextual fear memory; also recorded: significantly less freezing”.

The record behind these values is patent US20070161592A1, “Method of treating fear” (priority 2005, published 2007).
